The structures appear in SMILES notation.

This note sets out measurements from patent US12171755B2, “PAPD5 inhibitors and methods of use thereof” (Children's Medical Center Corporation, priority 2017, dated 2024).

This test addresses T1, PAPD5 (Homo sapiens, UniProt Q8NDF8).
T1 construct: made in house
Description: High-throughput luminescence (KinaseGlo) RNA polyadenylation assay, ATP utilization by recombinant PAPD5. The class given is biochemical. Particulars: Table 4 (entries of Table 5), ratio of luminescence with inhibitor to DMSO; for Fold-change determined at compound concentration 33 μM: 33 μM compound; for Fold-change determined at compound concentration 100 μM: 100 μM compound, higher = higher inhibition. Summed up: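 Recombinant PAPD5 polyadenylates an oligonucleotide substrate using ATP, and remaining ATP is read by KinaseGlo luciferase luminescence. Compound was incubated for 2 h at room temperature, then with luciferase for 10 min.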
In general terms: Kinase-Glo reads ATP consumption through a luciferase reaction.

T1 sequence (Q8NDF8 68-698 isoform Q8NDF8-5): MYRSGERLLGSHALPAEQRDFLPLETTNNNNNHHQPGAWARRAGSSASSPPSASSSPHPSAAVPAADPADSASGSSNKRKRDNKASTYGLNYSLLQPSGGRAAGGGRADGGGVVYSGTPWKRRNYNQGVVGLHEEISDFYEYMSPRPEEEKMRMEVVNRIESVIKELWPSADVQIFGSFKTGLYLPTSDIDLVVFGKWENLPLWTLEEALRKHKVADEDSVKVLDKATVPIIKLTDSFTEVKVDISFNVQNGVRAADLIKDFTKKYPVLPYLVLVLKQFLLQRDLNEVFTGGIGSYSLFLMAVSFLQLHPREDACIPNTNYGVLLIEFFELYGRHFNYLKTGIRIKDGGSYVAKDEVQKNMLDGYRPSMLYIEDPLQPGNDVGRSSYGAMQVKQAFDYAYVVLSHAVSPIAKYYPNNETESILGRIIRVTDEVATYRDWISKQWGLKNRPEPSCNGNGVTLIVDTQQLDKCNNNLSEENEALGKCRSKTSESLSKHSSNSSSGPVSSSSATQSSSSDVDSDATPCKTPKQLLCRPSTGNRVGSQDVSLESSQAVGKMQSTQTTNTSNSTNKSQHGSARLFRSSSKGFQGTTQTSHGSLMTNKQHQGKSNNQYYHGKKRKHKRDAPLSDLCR

`CCc1nc2[nH]c(-c3ccc(C)cc3)cc(=O)n2n1` [Entry 158, 2-ethyl-5-(4-methylphenyl)[1,2,4]triazolo[1,5-a]pyrimidin-7(4H)-one]: the “Fold-change determined at compound concentration 33 μM” value is listed as 1.13 and the “Fold-change determined at compound concentration 100 μM” value came out at 1.364.

With `Cc1ccc(S(=O)(=O)NC2=NC3=NC(c4ccccc4)=CC(c4ccc(Cl)cc4)N3N2)cc1` (stereo not shown) [Entry 159, N-[7-(4-chlorophenyl)-5-phenyl-1,7-dihydro-[1,2,4]triazolo[1,5-a]pyrimidin-2-yl]-4-methylbenzenesulfonamide], the “Fold-change determined at compound concentration 33 μM” value turned out to be 1.12 and the “Fold-change determined at compound concentration 100 μM” value is 1.22.

`c1cc(OCCN2CCCCC2)cc(-c2n[nH]c3ccc(-c4ncn[nH]4)cc23)c1` [Entry 160, 3-[3-(2-piperidin-1-ylethoxy)phenyl]-5-(1H-1,2,4-triazol-5-yl)-1H-indazole]: the “Fold-change determined at compound concentration 33 μM” value worked out at 1.075 and the “Fold-change determined at compound concentration 100 μM” value was determined as 1.239.

Regarding `O=c1nc(SCc2ccc(F)cc2)[nH]c2nc[nH]c12` [Entry 162, 2-[(4-fluorophenyl)methylsulfanyl]-3,7-dihydropurin-6-one], the “Fold-change determined at compound concentration 33 μM” value came to 1.153 and the “Fold-change determined at compound concentration 100 μM” value is given as 1.431.

For `Cc1ccccc1CSc1nc(=O)c2[nH]cnc2[nH]1` [Entry 163, 2-[(2-methylphenyl)methylsulfanyl]-3,7-dihydropurin-6-one], the “Fold-change determined at compound concentration 33 μM” value worked out at 1.109 and the “Fold-change determined at compound concentration 100 μM” value was determined as 1.287.

As to `Cc1oc2ccccc2c1C(=O)CSc1nc(O)c2nc[nH]c2n1` [Entry 164, 2-[(6-hydroxy-9H-purin-2-yl)thio]-1-(2-methyl-1-benzofuran-3-yl)ethanone], the “Fold-change determined at compound concentration 33 μM” value was 1.126 and the “Fold-change determined at compound concentration 100 μM” value is given as 1.293.

For `COc1cc(-c2nc(C(N)=O)c3[nH]c(=O)n(CC4CCCO4)c3n2)ccc1O` (stereo not shown) [Entry 165, 2-(4-hydroxy-3-methoxyphenyl)-8-oxo-9-(tetrahydrofuran-2-ylmethyl)-8,9-dihydro-7H-purine-6-carboxamide], the “Fold-change determined at compound concentration 33 μM” value was 1.224 and the “Fold-change determined at compound concentration 100 μM” value worked out at 1.689.

Consider `COCc1c(Br)c(C)nc2sc3c(=O)[nH]nnc3c12` [Entry 166, 8-bromo-9-(methoxymethyl)-7-methylpyrido[3′,2′:4,5]thieno[3,2-d][1,2,3]triazin-4(3H)-one], for which the “Fold-change determined at compound concentration 33 μM” value was 1.128 and the “Fold-change determined at compound concentration 100 μM” value was found to be 1.321.

As to `COCc1c(Br)c(C)nc2sc3c(=O)n(-c4ccccc4C(=O)OC)nnc3c12` [Entry 167, methyl 2-(8-bromo-9-(methoxymethyl)-7-methyl-4-oxopyrido[3′,2′:4,5]thieno[3,2-d][1,2,3]triazin-3(4H)-yl)benzoate], the “Fold-change determined at compound concentration 33 μM” value is reported as 1.413 and the “Fold-change determined at compound concentration 100 μM” value stood at 1.995.

As for `Cc1c(C(=O)N2CCCC2)oc2c1-c1nn(CC(=O)NCCCOC(C)C)cc1CC2` [Entry 168, 2-[8-methyl-7-(pyrrolidine-1-carbonyl)-4,5-dihydrofuro[2,3-g]indazol-2-yl]-N-(3-propan-2-yloxypropyl)acetamide], the “Fold-change determined at compound concentration 33 μM” value worked out at 1.452 and the “Fold-change determined at compound concentration 100 μM” value stood at 1.678.

Take `CCOCCCNC(=O)Cn1cc2c(n1)-c1c(oc(C(=O)N3CCCC3)c1C)CC2` [Entry 169, N-(3-ethoxypropyl)-2-[8-methyl-7-(pyrrolidine-1-carbonyl)-4,5-dihydrofuro[2,3-g]indazol-2-yl]acetamide]: the “Fold-change determined at compound concentration 33 μM” value was 1.455 and the “Fold-change determined at compound concentration 100 μM” value worked out at 1.879.

Consider `Cc1ccccc1CNC(=O)Cn1cc2c(n1)-c1c(oc(C(=O)N3CCCC3)c1C)CC2` [Entry 170, N-[(2-methylphenyl)methyl]-2-[8-methyl-7-(pyrrolidine-1-carbonyl)-4,5-dihydrofuro[2,3-g]indazol-2-yl]acetamide], for which the “Fold-change determined at compound concentration 33 μM” value was found to be 1.302 and the “Fold-change determined at compound concentration 100 μM” value is reported as 1.816.

On to `COCCNC(=O)Cn1cc2c(n1)-c1c(oc(C(=O)N3CCCC3)c1C)CC2` [Entry 171, N-(2-methoxyethyl)-2-[8-methyl-7-(pyrrolidine-1-carbonyl)-4,5-dihydrofuro[2,3-g]indazol-2-yl]acetamide], for which the “Fold-change determined at compound concentration 33 μM” value turned out to be 1.374 and the “Fold-change determined at compound concentration 100 μM” value was 1.777.

With `Cc1c(C(=O)N2CCCC2)oc2c1-c1nn(CC(=O)NCc3ccccc3Br)cc1CC2` [Entry 172, N-[(2-bromophenyl)methyl]-2-[8-methyl-7-(pyrrolidine-1-carbonyl)-4,5-dihydrofuro[2,3-g]indazol-2-yl]acetamide], the “Fold-change determined at compound concentration 33 μM” value stood at 1.296 and the “Fold-change determined at compound concentration 100 μM” value is listed as 1.616.

Take `CCOC(=O)c1cccc(NC(=O)c2oc3c(c2C)-c2nn(CC)cc2CC3)c1` [Entry 173, ethyl 3-[(2-ethyl-8-methyl-4,5-dihydrofuro[2,3-g]indazole-7-carbonyl)amino]benzoate]: the “Fold-change determined at compound concentration 33 μM” value was found to be 1.19 and the “Fold-change determined at compound concentration 100 μM” value is 1.657.

Consider `Cc1ccc(Cl)cc1NC(=O)c1oc2c(c1C)-c1[nH]ncc1CC2` [Entry 174, N-(5-chloro-2-methylphenyl)-8-methyl-4,5-dihydro-1H-furo[2,3-g]indazole-7-carboxamide], for which the “Fold-change determined at compound concentration 33 μM” value came out at 1.278 and the “Fold-change determined at compound concentration 100 μM” value is 1.87.

For the compound `Cc1c(C(=O)NCc2ccccc2)oc2c1-c1[nH]ncc1CC2` [Entry 175, N-benzyl-8-methyl-4,5-dihydro-1H-furo[2,3-g]indazole-7-carboxamide], the “Fold-change determined at compound concentration 33 μM” value is 1.094 and the “Fold-change determined at compound concentration 100 μM” value turned out to be 1.352.

`Cc1c2c(=O)n(-c3nc4ccccc4s3)[nH]c2cc(=O)n1CCc1cnc[nH]1` [Entry 176, 5-(2-(1H-imidazol-5-yl)ethyl)-2-(benzo[d]thiazol-2-yl)-4-methyl-1,2-dihydro-3H-pyrazolo[4,3-c]pyridine-3,6(5H)-dione]: the “Fold-change determined at compound concentration 33 μM” value amounted to 1.151 and the “Fold-change determined at compound concentration 100 μM” value amounted to 1.563.

`Cc1c2c(=O)n(-c3nc4ccccc4s3)[nH]c2cc(=O)n1Cc1ccc(C(=O)O)cc1` [Entry 177, 4-[[2-(1,3-benzothiazol-2-yl)-4-methyl-3,6-dioxo-1H-pyrazolo[4,3-c]pyridin-5-yl]methyl]benzoic acid]: the “Fold-change determined at compound concentration 33 μM” value was 1.053 and the “Fold-change determined at compound concentration 100 μM” value is on record as 1.4.

Turning to `COc1ccc(-c2n[nH]c3nc(-c4ccc(O)c(O)c4)cc(C(=O)O)c23)cc1` [Entry 178, 6-(3,4-dihydroxyphenyl)-3-(4-methoxyphenyl)-1H-pyrazolo[3,4-b]pyridine-4-carboxylic acid], the “Fold-change determined at compound concentration 33 μM” value is recorded as 1.217 and the “Fold-change determined at compound concentration 100 μM” value is reported as 1.633.
